Data reported in US9603849B2, “Uses of orvepitant” (NERRE THERAPEUTICS LIMITED, priority 2012, dated 2017).

Target: NK-1 receptor (Meriones unguiculatus, UniProt Q5DUB1)
Experiment: GR73632-induced hindlimb scratching behaviour in the Mongolian gerbil
Assay type: in vivo
Details: mean ± s.e.m.
Excerpt: 5) Particularly the antipruritic effect of orvepitant maleate was determinated in GR73632-induced scratching behaviour in the Mongolian gerbil. According to this metholody the scratching behaviour was induced by GR73632 which is a specific agonist of the NK-1 receptor.
72 male Mongolian gerbils (58-78 g) after a minimum habituation period of 10 days prior to study commencement, were acclimatised to the procedure room in their home cages, with food and water available ad libitum. The day before the experiment was due to commence a 1 cm×1 cm squared area between the shoulder blades was shaved free of hair.
Habituation to the apparatus (custom made observation chambers; approximately 30×30 cm; 2 animals per observation) took place 30 minutes prior to induction of scratching behaviours using GR73632.
A 10 mg/kg stock solution of orvepitant maleate was made by dissolving 20 mg of orvepitant maleate Form 1 in 20 mls of vehicle (5% DMSO & 95% HPMC (0.5%)). This stock solution was serially diluted to prepare doses of 0.1, 0.3, 1.0, 3.0 or 10 mg/kg orvepitant maleate.
At T=−60 mins mongolian gerbils were dosed with orvepitant maleate (0.1, 0.3, 1.0, 3.0 or, 10 mg/kg p.o.). Gerbils were allocated to dosing groups based on a Latin square design. 30 Minutes later (T=−30 mins) gerbils were placed into the observation chamber for 30 minutes habituation. At T=0 Gerbils were then dosed with GR73632 (30 nmol/100 uL; i.d.) between the shoulder blades and their subsequent hindlimb scratching behaviour recorded using GeoVision surveillance software over a 30 minute period.
Playing back of the video served for counting scratching behaviour. […] Cumulative frequency and duration (secs) of scratching was scored in 5 min epochs. Treatment groups were randomised based on a Latin Square design. The experimenter was blinded to the treatment groups.
Repeated measures ANOVA followed by Planned comparison test using GraphPad Prism. (p<0.05 considered significant). Data were analysed by comparing treatment groups to control group at each time point.

Chain of NK-1 receptor (Q5DUB1 whole entry): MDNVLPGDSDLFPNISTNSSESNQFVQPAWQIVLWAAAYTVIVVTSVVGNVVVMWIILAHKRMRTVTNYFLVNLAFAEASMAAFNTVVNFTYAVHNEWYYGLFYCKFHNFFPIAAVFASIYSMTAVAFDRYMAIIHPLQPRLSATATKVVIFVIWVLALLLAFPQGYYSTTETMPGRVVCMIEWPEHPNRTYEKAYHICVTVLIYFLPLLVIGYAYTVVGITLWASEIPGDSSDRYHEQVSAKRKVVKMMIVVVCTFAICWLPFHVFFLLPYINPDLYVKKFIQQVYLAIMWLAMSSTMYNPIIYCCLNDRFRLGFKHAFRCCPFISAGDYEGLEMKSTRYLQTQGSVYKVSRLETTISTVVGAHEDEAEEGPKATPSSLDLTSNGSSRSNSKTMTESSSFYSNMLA

Cc1cc(F)ccc1[C@H]1C[C@@H](N2CCN3C(=O)CC[C@H]3C2)CCN1C(=O)N(C)[C@H](C)c1cc(C(F)(F)F)cc(C(F)(F)F)c1.O=C(O)/C=C\C(=O)O [orvepitant maleate, 2-(R)-(4-Fluoro-2-methyl-phenyl)-4-(S)-((8aS)-6-oxo-hexahydro-pyrrolo[1,2-a]-pyrazin-2-yl)-piperidine-1-carboxylic acid [1-(R)-(3,5-bis-trifluoromethyl-phenyl)-ethyl]-methylamide maleate]
Cumulative duration of hindlimb scratching (0.1 mg/kg p.o., 0-5 mins after GR73632 i.d., vehicle 5.35 ± 1.37): NS 2.76 ± 0.71 secs
Cumulative frequency of hindlimb scratching (0.1 mg/kg p.o., 0-5 mins after GR73632 i.d., vehicle 7.75 ± 2.18): NS4.08 ± 1.45
Cumulative duration of hindlimb scratching (0.1 mg/kg p.o., 5-10 mins after GR73632 i.d., vehicle 11.71 ± 1.93): **4.20 ± 0.85 secs
Cumulative frequency of hindlimb scratching (0.1 mg/kg p.o., 5-10 mins after GR73632 i.d., vehicle 14.41 ± 2.49): **5.83 ± 1.55
Cumulative duration of hindlimb scratching (0.1 mg/kg p.o., 10-15 mins after GR73632 i.d., vehicle 16.54 ± 2.58): ***5.96 ± 1.16 secs
Cumulative frequency of hindlimb scratching (0.1 mg/kg p.o., 10-15 mins after GR73632 i.d., vehicle 20.25 ± 2.97): ***7.91 ± 1.74
Cumulative duration of hindlimb scratching (0.1 mg/kg p.o., 15-20 mins after GR73632 i.d., vehicle 20.08 ± 2.83): ***7.86 ± 1.67 secs
Cumulative frequency of hindlimb scratching (0.1 mg/kg p.o., 15-20 mins after GR73632 i.d., vehicle 24.33 ± 3.22): ***9.66 ± 1.92
Cumulative duration of hindlimb scratching (0.1 mg/kg p.o., 20-25 mins after GR73632 i.d., vehicle 23.19 ± 2.80): ***8.99 ± 2.09 secs
Cumulative frequency of hindlimb scratching (0.1 mg/kg p.o., 20-25 mins after GR73632 i.d., vehicle 28.25 ± 3.26): ***10.91 ± 2.07
Cumulative duration of hindlimb scratching (0.1 mg/kg p.o., 25-30 mins after GR73632 i.d., vehicle 25.69 ± 3.026): ***9.67 ± 2.14 secs
Cumulative frequency of hindlimb scratching (0.1 mg/kg p.o., 25-30 mins after GR73632 i.d., vehicle 32.00 ± 3.60): ***11.58 ± 2.12
Cumulative duration of hindlimb scratching (0.3 mg/kg p.o., 0-5 mins after GR73632 i.d., vehicle 5.35 ± 1.37): NS 2.06 ± 0.62 secs
Cumulative frequency of hindlimb scratching (0.3 mg/kg p.o., 0-5 mins after GR73632 i.d., vehicle 7.75 ± 2.18): NS3.00 ± 0.88
Cumulative duration of hindlimb scratching (0.3 mg/kg p.o., 5-10 mins after GR73632 i.d., vehicle 11.71 ± 1.93): **3.50 ± 0.88 secs
Cumulative frequency of hindlimb scratching (0.3 mg/kg p.o., 5-10 mins after GR73632 i.d., vehicle 14.41 ± 2.49): ***4.91 ± 1.15
Cumulative duration of hindlimb scratching (0.3 mg/kg p.o., 10-15 mins after GR73632 i.d., vehicle 16.54 ± 2.58): ***5.86 ± 1.44 secs
Cumulative frequency of hindlimb scratching (0.3 mg/kg p.o., 10-15 mins after GR73632 i.d., vehicle 20.25 ± 2.97): ***7.50 ± 1.56
Cumulative duration of hindlimb scratching (0.3 mg/kg p.o., 15-20 mins after GR73632 i.d., vehicle 20.08 ± 2.83): ***7.09 ± 1.63 secs
Cumulative frequency of hindlimb scratching (0.3 mg/kg p.o., 15-20 mins after GR73632 i.d., vehicle 24.33 ± 3.22): ***8.66 ± 1.61
Cumulative duration of hindlimb scratching (0.3 mg/kg p.o., 20-25 mins after GR73632 i.d., vehicle 23.19 ± 2.80): ***8.58 ± 1.93 secs
Cumulative frequency of hindlimb scratching (0.3 mg/kg p.o., 20-25 mins after GR73632 i.d., vehicle 28.25 ± 3.26): ***10.00 ± 1.62
Cumulative duration of hindlimb scratching (0.3 mg/kg p.o., 25-30 mins after GR73632 i.d., vehicle 25.69 ± 3.026): ***10.27 ± 2.17 secs
Cumulative frequency of hindlimb scratching (0.3 mg/kg p.o., 25-30 mins after GR73632 i.d., vehicle 32.00 ± 3.60): ***11.75 ± 1.90
Cumulative duration of hindlimb scratching (1.0 mg/kg p.o., 0-5 mins after GR73632 i.d., vehicle 5.35 ± 1.37): NS 2.74 ± 1.06 secs
Cumulative frequency of hindlimb scratching (1.0 mg/kg p.o., 0-5 mins after GR73632 i.d., vehicle 7.75 ± 2.18): NS3.75 ± 1.30
Cumulative duration of hindlimb scratching (1.0 mg/kg p.o., 5-10 mins after GR73632 i.d., vehicle 11.71 ± 1.93): **4.51 ± 1.05 secs
Cumulative frequency of hindlimb scratching (1.0 mg/kg p.o., 5-10 mins after GR73632 i.d., vehicle 14.41 ± 2.49): **5.91 ± 1.25
Cumulative duration of hindlimb scratching (1.0 mg/kg p.o., 10-15 mins after GR73632 i.d., vehicle 16.54 ± 2.58): ***4.92 ± 1.13 secs
Cumulative frequency of hindlimb scratching (1.0 mg/kg p.o., 10-15 mins after GR73632 i.d., vehicle 20.25 ± 2.97): ***6.41 ± 1.29
Cumulative duration of hindlimb scratching (1.0 mg/kg p.o., 15-20 mins after GR73632 i.d., vehicle 20.08 ± 2.83): ***6.02 ± 1.28 secs
Cumulative frequency of hindlimb scratching (1.0 mg/kg p.o., 15-20 mins after GR73632 i.d., vehicle 24.33 ± 3.22): ***8.00 ± 1.39
Cumulative duration of hindlimb scratching (1.0 mg/kg p.o., 20-25 mins after GR73632 i.d., vehicle 23.19 ± 2.80): ***7.48 ± 1.55 secs
Cumulative frequency of hindlimb scratching (1.0 mg/kg p.o., 20-25 mins after GR73632 i.d., vehicle 28.25 ± 3.26): ***9.66 ± 1.71
Cumulative duration of hindlimb scratching (1.0 mg/kg p.o., 25-30 mins after GR73632 i.d., vehicle 25.69 ± 3.026): ***10.00 ± 2.17 secs
Cumulative frequency of hindlimb scratching (1.0 mg/kg p.o., 25-30 mins after GR73632 i.d., vehicle 32.00 ± 3.60): ***12.08 ± 2.25
Cumulative duration of hindlimb scratching (3.0 mg/kg p.o., 0-5 mins after GR73632 i.d., vehicle 5.35 ± 1.37): NS 0.96 ± 0.32 secs
Cumulative frequency of hindlimb scratching (3.0 mg/kg p.o., 0-5 mins after GR73632 i.d., vehicle 7.75 ± 2.18): NS1.58 ± 0.46
Cumulative duration of hindlimb scratching (3.0 mg/kg p.o., 5-10 mins after GR73632 i.d., vehicle 11.71 ± 1.93): ***1.30 ± 0.38 secs
Cumulative frequency of hindlimb scratching (3.0 mg/kg p.o., 5-10 mins after GR73632 i.d., vehicle 14.41 ± 2.49): ***2.16 ± 0.58
Cumulative duration of hindlimb scratching (3.0 mg/kg p.o., 10-15 mins after GR73632 i.d., vehicle 16.54 ± 2.58): ***1.79 ± 0.39 secs
Cumulative frequency of hindlimb scratching (3.0 mg/kg p.o., 10-15 mins after GR73632 i.d., vehicle 20.25 ± 2.97): ***2.83 ± 0.57
Cumulative duration of hindlimb scratching (3.0 mg/kg p.o., 15-20 mins after GR73632 i.d., vehicle 20.08 ± 2.83): ***2.415 ± 0.47 secs
Cumulative frequency of hindlimb scratching (3.0 mg/kg p.o., 15-20 mins after GR73632 i.d., vehicle 24.33 ± 3.22): ***3.66 ± 0.64
Cumulative duration of hindlimb scratching (3.0 mg/kg p.o., 20-25 mins after GR73632 i.d., vehicle 23.19 ± 2.80): ***2.59 ± 0.50 secs
Cumulative frequency of hindlimb scratching (3.0 mg/kg p.o., 20-25 mins after GR73632 i.d., vehicle 28.25 ± 3.26): ***4.00 ± 0.67
Cumulative duration of hindlimb scratching (3.0 mg/kg p.o., 25-30 mins after GR73632 i.d., vehicle 25.69 ± 3.026): ***3.09 ± 0.61 secs
Cumulative frequency of hindlimb scratching (3.0 mg/kg p.o., 25-30 mins after GR73632 i.d., vehicle 32.00 ± 3.60): ***4.58 ± 0.76
Cumulative duration of hindlimb scratching (10.0 mg/kg p.o., 0-5 mins after GR73632 i.d., vehicle 5.35 ± 1.37): NS 0.57 ± 0.29 secs
Cumulative frequency of hindlimb scratching (10.0 mg/kg p.o., 0-5 mins after GR73632 i.d., vehicle 7.75 ± 2.18): *0.91 ± 0.43
Cumulative duration of hindlimb scratching (10.0 mg/kg p.o., 5-10 mins after GR73632 i.d., vehicle 11.71 ± 1.93): ***1.13 ± 0.38 secs
Cumulative frequency of hindlimb scratching (10.0 mg/kg p.o., 5-10 mins after GR73632 i.d., vehicle 14.41 ± 2.49): ***1.66 ± 0.60
Cumulative duration of hindlimb scratching (10.0 mg/kg p.o., 10-15 mins after GR73632 i.d., vehicle 16.54 ± 2.58): ***2.38 ± 0.78 secs
Cumulative frequency of hindlimb scratching (10.0 mg/kg p.o., 10-15 mins after GR73632 i.d., vehicle 20.25 ± 2.97): ***2.58 ± 0.73
Cumulative duration of hindlimb scratching (10.0 mg/kg p.o., 15-20 mins after GR73632 i.d., vehicle 20.08 ± 2.83): ***3.22 ± 0.84 secs
Cumulative frequency of hindlimb scratching (10.0 mg/kg p.o., 15-20 mins after GR73632 i.d., vehicle 24.33 ± 3.22): ***3.58 ± 0.73
Cumulative duration of hindlimb scratching (10.0 mg/kg p.o., 20-25 mins after GR73632 i.d., vehicle 23.19 ± 2.80): ***4.36 ± 1.18 secs
Cumulative frequency of hindlimb scratching (10.0 mg/kg p.o., 20-25 mins after GR73632 i.d., vehicle 28.25 ± 3.26): ***5.00 ± 0.92
Cumulative duration of hindlimb scratching (10.0 mg/kg p.o., 25-30 mins after GR73632 i.d., vehicle 25.69 ± 3.026): ***5.24 ± 1.35 secs
Cumulative frequency of hindlimb scratching (10.0 mg/kg p.o., 25-30 mins after GR73632 i.d., vehicle 32.00 ± 3.60): ***5.91 ± 1.16
